These are literature values, as cited in patent US11667640B2, “Mitoketoscins: mitochondrial-based therapeutics targeting ketone metabolism in cancer cells” (LUNELLA BIOTECH, INC., priority 2017, dated 2023).

This data set has as its target T1, ACAT1 (Homo sapiens, UniProt P24752).
T1 sequence (P24752 34-427): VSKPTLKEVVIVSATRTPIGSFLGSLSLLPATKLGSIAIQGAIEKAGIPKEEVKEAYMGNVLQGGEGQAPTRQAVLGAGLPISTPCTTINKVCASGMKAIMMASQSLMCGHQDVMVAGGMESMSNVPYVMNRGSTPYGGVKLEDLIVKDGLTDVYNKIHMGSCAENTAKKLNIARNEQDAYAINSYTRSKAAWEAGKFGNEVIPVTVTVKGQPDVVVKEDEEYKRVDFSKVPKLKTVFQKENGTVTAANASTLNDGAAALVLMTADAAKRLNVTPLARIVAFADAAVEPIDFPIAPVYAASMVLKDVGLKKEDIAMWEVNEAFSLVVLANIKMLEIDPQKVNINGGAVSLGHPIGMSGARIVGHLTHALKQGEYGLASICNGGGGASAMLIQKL
Particulars: Garcia-Bermudez et al, Mol Cell 2016.

SMILES strings stand for the structures.

Regarding `COC(=O)C1=CCCN(C)C1` [Arecoline], the ACAT1 inhibition result is “potential ACAT1 inhibitor”.
